Source: US12533330B2, “(2S)-2-aminopentanethioic s-acid for use as medicament and in therapy of amyotrophic lateral sclerosis” (MASSEY VENTURES LIMITED, priority 2020, dated 2026)

Experiments:
Format in all cases: in vivo
[1] = tested on: FUS[1-359]-tg mouse line (FUS-tg); assay: Onset of paralysis in FUS-tg mouse ALS model; conditions: for percentage of FUS-tg mice with signs of paralysis on day 95: FUS-tg male mice, six weeks via drinking water from age nine weeks, (I) and (IX) 50 mg/kg/day, Riluzole 8 mg/kg
Source text: (§1) A transgenic FUS[1-359]-tg mouse line (FUS-tg) was used to test the efficacy of the substance of formula (I) in the therapy of amyotrophic lateral sclerosis according to the guidelines set for ALS preclinical studies. Ludolph A C et al. Guidelines for preclinical animal research in ALS/MND: A consensus meeting. Amyotroph Lateral Scler. 2010; 11:38-45. Mutations in DNA/RNA-binding factor (fused-in-sarcoma) FUS cause ALS in humans. The FUS-tg mouse model recapitulates core hallmarks of human ALS in the spinal cord, including neuroinflammation and neurodegeneration, ensuing muscle atrophy and paralysis. […] J Biol Chem. 2013; 288:25266-25274. Lutz C. Mouse models of ALS: Past, present and future. […] CNS Neurosci Ther. 2020; 26(5):504-517.
(§2) The substance (I) and the substance (IX) represent (2S)- and (2R)-enantiomers of 2-aminopentanethioic S-acid, respectively. The (2R)-enantiomer (IX) was included to the study to clarify importance of (S)- and (R)-configurations of 2-aminopentanethioic S-acid during the therapy of ALS.
The onset of paralysis, a core ALS symptom, was recorded for each FUS-tg mouse.

[2] = tested on: FUS[1-359]-tg mouse line (FUS-tg); assay: Rotarod test in FUS-tg mouse ALS model; conditions: week 5, via drinking water, one-way ANOVA and Tukey's test
Source text: as §1, §2

[3] = tested on: FUS[1-359]-tg mouse line (FUS-tg); assay: Malondialdehyde (MDA) concentration in spinal cord of FUS-tg mice; conditions: 50 mg/kg/day via drinking water, one-way ANOVA and Tukey's test
Source text: A transgenic FUS[1-359]-tg mouse line (FUS-tg) was used to test the efficacy of the substance of formula (I) in the therapy of amyotrophic lateral sclerosis according to the guidelines set for ALS preclinical studies. Ludolph A C et al. Guidelines for preclinical animal research in ALS/MND: A consensus meeting. Amyotroph Lateral Scler. 2010; 11:38-45. Mutations in DNA/RNA-binding factor (fused-in-sarcoma) FUS cause ALS in humans. The FUS-tg mouse model recapitulates core hallmarks of human ALS in the spinal cord, including neuroinflammation and neurodegeneration, ensuing muscle atrophy and paralysis. Shelkovnikova T A et al. Fused in sarcoma (FUS) protein lacking nuclear localization signal (NLS) and major RNA binding motifs triggers proteinopathy and severe motor phenotype in transgenic mice. J Biol Chem. 2013; 288:25266-25274. Lutz C. Mouse models of ALS: Past, present and future. Brain Res. 2018; 1693:1-10. de Munter J et al. Neuro-Cells therapy improves motor outcomes and suppresses inflammation during experimental syndrome of amyotrophic lateral sclerosis in mice. CNS Neurosci Ther. 2020; 26(5):504-517. […]
The concentration of malondialdehyde (MDA), a marker of oxidative stress, was measured in the spinal cord of FUS-tg mice treated with vehicle or substance of formula (I) in comparison with wild type controls. […]

Row | Compound | percentage of FUS-tg mice with signs of paralysis on day 95 [1] [%] | significance of percentage of mice with signs of paralysis on the 95th day vs. vehicle ([1]; FUS-tg mice, day 95, Fisher test vs. vehicle) | latency to fall in the rotarod test vs. vehicle-treated FUS-tg mice [2] | MDA levels in the spinal cord vs. vehicle-treated FUS-tg mice [3]
1 | CCC[C@H](N)C(=O)S [substance (I), (2S)-2-aminopentanethioic S-acid] | 16 | significantly lower | significantly longer latency to fall | significant reduction of the MDA levels
2 | CCC[C@@H](N)C(=O)S [substance (IX), (2R)-2-aminopentanethioic S-acid, reference compound] | 43 |  | no significant difference | 
